# Experimental data as given in patent US6624187B1, “Long wave length absorbing bacteriochlorin alkyl ether analogs” (Health Research, Inc., priority 2000, dated 2003).
# “Also recorded” adds a separate entry of the source.
# Assays:
# mouse foot tissue = assay: Foot response phototoxicity in mouse foot tissue; format: in vivo; conditions: 0.47 mmol/kg I.V.; 135 J/cm^2 at 790 nm; feet illuminated 5 days after injection
# Protocol: Since prolonged cutaneous photosensitivity is a serious side-effect of Photofrin® administration, we tested the phototoxicity of 3-deacetyl-3-(1-heptyloxyethyl) bacteriopurpurin-18-N-hexylimide 7 in mouse foot tissue and the therapeutic drug and light doses. Mice were injected (I.V.) with 0.47 mmol/kg of the drug. Feet were illuminated with 135 J/cm^2 at 790 nm laser light on days 1, 2, 3, 4 and 5 (FIG. 5). Foot response was graded according to the following arbitrary scale: 0, no difference from normal; 0.1, very slight edema; 0.3, slight edema; 0.5, moderate edema; 0.75, large edema; 1, large edema with exudate; 1.2, moderate reddening with slight scaly or crusty appearance; 1.65, slight damage to toes; 1.75, definite damage or slight fusion of toes; 2.0, most toes fused; 2.5, foot almost shapeless with no toes; 3, only stub of foot remaining.
# RIF tumor [1] = assay: In vivo photosensitizing efficacy of bacteriopurpurinimides against RIF tumor; conditions: for Tumor Response (%): Day 7-90
# Protocol: The photosensitizers were dissolved in known quantity of Tween 80 (Aldrich) surfactant and diluted by a factor of 10 with 5% dextrose solution in water to produce a final Tween 80 concentration of 1%. The solution was then filtered through a syringe filter. The concentration of the solution was determined on the basis of the extinction coefficient value of the photosensitizer at the longest wavelength absorption.
# Before injecting the drug to the animals, the purity of the material was confirmed by HPLC using a Spectra-Physics system connected to a SP8 700 solvent delivery system and Kratos 757 absorption detector with a fixed wavelength at 405 or 786 nm. Two solvent systems were used in the HPLC analysis: solvent A was prepared by dissolving anhydrous dibasic sodium phosphate (1.0 g) in 400 ml water. To this was added HPLC grade methanol (600 ml). The pH of the solution was adjusted to 7.5 with phosphoric acid; and solvent B was prepared by dissolving anhydrous dibasic sodium phosphate (0.3 g) in 100 ml water, to this was added methanol (900 ml), and the pH was adjusted to 7.5 with phosphoric acid. Solvents A and B were used as gradient mode (0-10 min A, 10-40 min A-B, 40-50 min B, 50-60 min back to A). In some cases solvent B was used as isocratic mode (column reverse phase C-8, flow rate 1.5 ml/min). Prior to irradiation, the fur over grown and surrounding the tumor was removed with electric clippers. Twenty four hours after injecting the drug, the mouse was placed in a custom made aluminum holder. Standard light dose 75 mW/cm^2 for 30 min for a total incident light dose of 135 J/cm^2 from a tunable dye laser tuned to the maximum red absorption peak at 790 nm (in vivo absorption, determined by in vivo reflectance spectroscopy). Laser output was measured with a power meter.
# Following light exposure, the mice were kept in groups of 5/cage and supplied with pelleted food and water ad libitum. Tumor size and gross appearance of both tumor and overlying skin was monitored daily for 90 days after photo-illumination unless growth of non-responsive tumor require early sacrifice of those animals.
# Bacteriopurpurin-imides 5-7 above have been evaluated for in vivo studies in a mouse tumor model system (RIF tumor). […] The mice were treated with light (790 nm, 135 J/cm^2) after 24 h post injection of the drug (80% tumor cure on day 21 and 60% on day 90). […] The efficacy of the drug was also determined at variable drug and light doses.
# RIF tumor [2] = assay: Tumor uptake and in vivo absorption shift by in vivo reflectance spectroscopy; design: species or system mouse
# Protocol: FIGS. 4A and 4B show curves of in vivo light wave absorption of compound 7 in RIF tumor at 24 hours and 5 days post injection.
# The tumor uptake and in vivo shift in the long wavelength absorption of the bacteriopurpurin-imide 7 was determined by in vivo reflectance spectroscopy. […] Thus, the tumors were irradiated with light at that particular wavelength. […] In vivo studies with these and other bacteriochlorin analogs at variable treatment conditions are currently in progress.
# [3] = In vivo PDT efficacy of bacteriochlorin-N-hexylimide
# Source text: Compared to the anhydride ring system, compounds with fused imide ring system in other compounds have shown stability in vivo. For example, among non-porphyrin systems, amonafide, an imide derivative and its structural analogs are reported as anti-neoplastic agents in vitro as well as in vivo with good stability. While we could not know how this might apply to non-porphyrin systems, we investigated the effect of such cyclic structures in the bacteriochlorin system. Initially we followed our own methodology developed for the preparation of purpurin-18-N-alkylimides (U.S. Pat. No. 5,952,366 incorporated herein by reference). Unfortunately, that approach produced a complex reaction mixture. Thus, in a modified approach, bacteriopurpurin-a 2 was first reacted with an alkyl amine (e.g. n-hexyl amine). The formation of the intermediate amide was monitored by spectrophotometry and analytical thin layer chromatography. The intermediate amide analog 3, obtained as a mixture of two isomers, was reacted with diazomethane, and the solvent was removed under vacuum. The residue so obtained was re-dissolved in tetrahydrofuran, and solvent was evaporated. This procedure was repeated several times until the disappearance of the absorption at 765 nm and appearance of a new peak at 822 nm.
# [4] = injected dose 0.2 μmol/kg, light 790 nm 175J/cm^2 24 h post injection
# [5] = injected dose 0.47 μmol/kg, light 790 nm 135J/cm^2 24 h post injection
# [6] = injected dose 1.0 μmol/kg, light 790 nm 135J/cm^2 24 h post injection, C3H mice
compound,measurement,setting,value
"CCCCCCCOC(C)c1c(C)c2cc3nc(c4c5[nH]c(cc6nc(cc1[nH]2)[C@H](C)[C@H]6CC)c(C)c5C(=O)N(CCCCCC)C4=O)[C@@H](CCC(=O)OCCC)[C@@H]3C (stereo partly shown) [Compound 7, 3-Deacetyl-3-(1-heptyloxyethyl)-bacteriopurpurin-N-hexylimide Propyl Ester]",foot response phototoxicity,mouse foot tissue,did not show any toxicity
same,mice tumor free on day 90,"RIF tumor [1]; drug dose 0.2 μmol/kg, light dose 175 J/cm^2",four out of six
same,mice died after the light treatment,"RIF tumor [1]; drug dose 1.0 μmol/kg, light 790 nm, 135 J/cm^2",6/6
same,Tumor Response (%),"RIF tumor [1]; injected dose 0.2 μmol/kg, light 790 nm 135J/cm^2 24 h post injection",did not show any PDT efficacy; also recorded: NO RESPONSE
same,Tumor Response (%) Day 7,RIF tumor [1]; [4],100%
same,Tumor Response (%) Day 21,RIF tumor [1]; [4],70%
same,Tumor Response (%) Day 90,RIF tumor [1]; [4],70%
same,Tumor Response (%) Day 7,RIF tumor [1]; [5],80%
same,Tumor Response (%) Day 21,RIF tumor [1]; [5],80%
same,Tumor Response (%) Day 90,RIF tumor [1]; [5],60%
same,Tumor Response (%),RIF tumor [1]; [6],ALL MICE DIED
same,in vivo stability of fused imide ring system,RIF tumor [2]; 5 day post injection,quite stable in vivo
same,tumor uptake,"RIF tumor [2]; day 5 versus day 1 post injection, RIF tumor",significantly higher tumor uptake at day 5 than day 1
"CCCCCCN1C(=O)c2c3nc(cc4[nH]c(cc5nc(cc6[nH]c2c(c6C)C1=O)[C@H](CC)[C@H]5C)c(C(C)O)c4C)[C@@H](C)[C@@H]3CCC(=O)OCCC (stereo partly shown) [Compound 5, 3-Deacetyl-3-(1-hydroxyethyl)bacteriopurrurin-18-N-hexylimide]",Tumor Response (%),RIF tumor [1]; [6],did not produce any PDT efficacy; also recorded: NO RESPONSE
"C=Cc1c(C)c2cc3nc(c4c5[nH]c(cc6nc(cc1[nH]2)[C@H](C)[C@H]6CC)c(C)c5C(=O)N(CCCCCC)C4=O)[C@@H](CCC(=O)OCCC)[C@@H]3C [Compound 6, 3-Deacetyl-3-vinyl-bacteriopurpurin-18-N-hexylimide Propylester]",Tumor Response (%),RIF tumor [1]; [6],did not produce any PDT efficacy; also recorded: NO RESPONSE
3-Acetyl-bacteriopurpurin-18-N-hexylimide [Compound 4],in vivo PDT efficacy,[3],did not produce any significant in vivo PDT efficacy
